From PMC9502404, “The Strong Anti-Tumor Effect of Smp24 in Lung Adenocarcinoma A549 Cells Depends on Its Induction of Mitochondrial Dysfunctions and ROS Accumulation” (Toxins, 2022)
Where no end group is shown, it is not given here.

Legend:
MRC-5 = experiment: MTT cell viability assay, normal cells; format: cell-based; details: time not stated, MRC-5 not described in methods
A549 cells = experiment: MTT cell viability and proliferation assay; format: cell-based, human; details: Smp24 1.25-20 μM, 12, 24 and 48 h tested, time of the IC50 not stated, triplicate, consistent with ref 10
Description: Cellular viability was analyzed via MTT method as reported in our previous study. Briefly, A549 cells (1 × 10^4 cells/well) were cultured in 96-well plates and treated with a gradient concentration of Smp24 (1.25–20 μM) at different time intervals (12, 24, and 48 h). A549 cells were pre-incubated with different inhibitors including 40 μΜ Nec-1, 40 μM Z-DEVD-FMK, 40 μM Z-VAD-FMK, and 2 mM NAC for 30 min before 5 μM Smp24 was incubated with the cells for 12 h to investigate the responsibility of different signaling pathways in the cytotoxic effects of Smp24. After incubation, 10 µL MTT (5 mg/mL) was then added and incubated for 4 h at 37 °C in the dark. Subsequently, 200 µL DMSO was applied into each well after discarding the cell medium, and the cell viability was estimated by calculating the absorbance value at 490 nm via a microplate reader (Tecan Company, Männedorf, Switzerland). The experiments were performed in triplicate.

IWSFLIKAATKLLPSLFGGGKKDS [Smp24]
IC50 (MRC-5): ~14.7 µM | IC50 (A549 cells): ~4.06 µM
